Measurements reported in ChEMBL document CHEMBL1201862, “PubChem BioAssay data set” (2004).
Calls of active or inactive are those of the source.

Columns and labels:
Streptococcus = assay: Group A Streptococcus viability loss, dose response, counter-screen for streptokinase expression inhibitor project, luminescence, BacTiterGlo (AID 1915); assay type: functional, organism-based;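 further: potency for reduction of bacterial viability or growth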
Streptokinase A = molecular target: T1, Streptokinase A (Streptococcus pyogenes serotype M1, UniProt P10520); assay: S. pyogenes streptokinase expression inhibitors, potency, dose response, plasminogen activation absorbance, OD405 (AID 1914); assay type: functional, Streptococcus pyogenes M1 GAS;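 further: secreted streptokinase activity via plasminogen activation per viability signal from cell pellet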
T1 sequence (P10520 whole entry): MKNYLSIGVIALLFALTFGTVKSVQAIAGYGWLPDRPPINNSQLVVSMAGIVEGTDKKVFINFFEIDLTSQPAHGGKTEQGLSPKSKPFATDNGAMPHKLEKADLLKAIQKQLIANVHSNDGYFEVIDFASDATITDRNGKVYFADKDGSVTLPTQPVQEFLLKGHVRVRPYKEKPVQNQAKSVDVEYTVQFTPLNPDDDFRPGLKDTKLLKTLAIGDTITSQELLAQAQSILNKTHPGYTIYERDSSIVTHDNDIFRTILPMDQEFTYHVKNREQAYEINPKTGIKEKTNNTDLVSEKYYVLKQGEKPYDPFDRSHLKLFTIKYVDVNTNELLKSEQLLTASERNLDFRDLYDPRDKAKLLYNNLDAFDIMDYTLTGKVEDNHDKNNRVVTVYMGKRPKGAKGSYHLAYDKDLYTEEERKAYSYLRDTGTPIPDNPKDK

[1] = system: Streptococcus sp. 'group A'; assay: growth inhibition of control SK(-) GAS strain, dose response, counter-screen for streptokinase expression inhibitor project, luminescence, kanamycin, BacTiterGlo, confirmation (AID 1900); assay type: functional, organism-based
[2] = molecular target: Heat shock protein HSP 90-alpha (Homo sapiens, UniProt P07900); assay type: functional, organism-based
[3] = Luminescence Cell-Based Dose Retest to Confirm Inhibitors of Cancer Stem Cells. [Related pubchem assays (depositor defined):AID2717, AID2721]; assay type: functional; settings: Homo sapiens
[4] = microbe, parasite or virus in culture; assay type: functional; settings: Mycobacterium tuberculosis
Cytochrome P450 3A4 = Cytochrome P450 3A4 (Homo sapiens, UniProt P08684);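 further: CYP3A4 tested as one member of a cytochrome P450 panel screen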
Chain of Cytochrome P450 3A4 (P08684 whole entry): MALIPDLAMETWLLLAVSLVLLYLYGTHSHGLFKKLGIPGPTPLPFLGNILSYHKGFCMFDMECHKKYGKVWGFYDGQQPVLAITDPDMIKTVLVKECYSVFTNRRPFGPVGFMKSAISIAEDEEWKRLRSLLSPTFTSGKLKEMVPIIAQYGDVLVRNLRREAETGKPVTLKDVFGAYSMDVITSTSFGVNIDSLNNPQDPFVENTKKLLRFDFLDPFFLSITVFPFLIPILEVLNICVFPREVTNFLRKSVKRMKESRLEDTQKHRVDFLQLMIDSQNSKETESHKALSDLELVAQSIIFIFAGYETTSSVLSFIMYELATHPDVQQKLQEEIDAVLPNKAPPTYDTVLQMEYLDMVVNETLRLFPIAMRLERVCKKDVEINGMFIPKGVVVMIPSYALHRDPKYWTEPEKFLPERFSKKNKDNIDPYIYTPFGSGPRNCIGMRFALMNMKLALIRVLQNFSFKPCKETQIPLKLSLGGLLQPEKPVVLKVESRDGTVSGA

Cytochrome P450 2C9 = Cytochrome P450 2C9 (Homo sapiens, UniProt P11712)
Chain of Cytochrome P450 2C9 (P11712 whole entry): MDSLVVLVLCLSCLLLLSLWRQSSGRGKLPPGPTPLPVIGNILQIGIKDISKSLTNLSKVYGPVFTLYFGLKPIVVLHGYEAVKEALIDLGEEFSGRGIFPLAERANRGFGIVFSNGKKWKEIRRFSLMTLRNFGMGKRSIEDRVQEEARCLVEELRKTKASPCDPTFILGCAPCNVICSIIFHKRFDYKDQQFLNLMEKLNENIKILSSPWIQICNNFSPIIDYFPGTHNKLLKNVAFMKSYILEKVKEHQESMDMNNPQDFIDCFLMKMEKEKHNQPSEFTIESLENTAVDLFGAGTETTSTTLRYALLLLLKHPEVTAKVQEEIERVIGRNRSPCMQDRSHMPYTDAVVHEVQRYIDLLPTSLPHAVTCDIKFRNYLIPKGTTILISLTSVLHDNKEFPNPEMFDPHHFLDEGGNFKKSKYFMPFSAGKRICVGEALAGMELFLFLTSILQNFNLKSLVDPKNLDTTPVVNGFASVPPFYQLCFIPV

Coagulation factor XII = molecular target: T2, Coagulation factor XII (Homo sapiens, UniProt P00748); assay type: functional;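 further: activated factor XIIa alpha cleaving a fluorogenic AMC peptide substrate; inhibitor potency from loss of enzyme activity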
T2 sequence (P00748 whole entry): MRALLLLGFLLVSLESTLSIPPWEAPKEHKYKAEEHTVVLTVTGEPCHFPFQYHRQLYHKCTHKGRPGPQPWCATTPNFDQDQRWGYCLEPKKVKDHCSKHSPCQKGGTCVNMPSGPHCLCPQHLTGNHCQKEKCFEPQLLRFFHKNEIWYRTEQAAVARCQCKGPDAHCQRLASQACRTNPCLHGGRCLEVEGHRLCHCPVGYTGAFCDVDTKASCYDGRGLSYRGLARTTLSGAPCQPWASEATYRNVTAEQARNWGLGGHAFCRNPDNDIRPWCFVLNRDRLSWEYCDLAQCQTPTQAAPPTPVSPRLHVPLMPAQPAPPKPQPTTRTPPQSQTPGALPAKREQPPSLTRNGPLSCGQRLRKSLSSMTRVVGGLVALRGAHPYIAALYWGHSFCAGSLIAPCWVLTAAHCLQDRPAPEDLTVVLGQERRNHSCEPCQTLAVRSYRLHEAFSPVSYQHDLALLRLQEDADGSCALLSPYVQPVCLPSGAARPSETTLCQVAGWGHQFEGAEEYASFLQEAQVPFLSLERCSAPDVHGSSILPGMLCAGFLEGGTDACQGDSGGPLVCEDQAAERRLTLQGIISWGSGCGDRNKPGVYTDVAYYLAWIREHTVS

[5] = molecular target: 5-hydroxytryptamine receptor 2A (Mus musculus, UniProt P35363); assay type: functional, cell-based;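 further: CHO-K1 cells with tagged receptor and beta-arrestin; agonist potency measured as compound-induced activation of the receptor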
Chain of 5-hydroxytryptamine receptor 2A (P35363 whole entry): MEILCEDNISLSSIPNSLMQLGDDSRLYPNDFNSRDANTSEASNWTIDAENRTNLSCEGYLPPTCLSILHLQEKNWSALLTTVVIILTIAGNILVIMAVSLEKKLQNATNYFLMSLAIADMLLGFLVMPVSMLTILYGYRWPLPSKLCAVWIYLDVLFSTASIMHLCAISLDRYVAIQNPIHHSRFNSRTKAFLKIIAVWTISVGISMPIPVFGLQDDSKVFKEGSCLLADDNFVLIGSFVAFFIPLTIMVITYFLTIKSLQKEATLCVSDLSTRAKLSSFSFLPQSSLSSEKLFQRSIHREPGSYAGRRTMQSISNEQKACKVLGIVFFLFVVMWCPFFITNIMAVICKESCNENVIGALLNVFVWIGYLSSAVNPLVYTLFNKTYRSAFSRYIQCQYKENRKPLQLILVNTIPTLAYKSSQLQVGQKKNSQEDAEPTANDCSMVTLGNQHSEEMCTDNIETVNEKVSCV

Mu-type opioid receptor = Mu-type opioid receptor (Homo sapiens, UniProt P35372); assay type: functional, cell-based;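 further: U2OS cells with beta-arrestin recruitment to OPRM1 by beta-gal complementation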
Chain of Mu-type opioid receptor (P35372 whole entry): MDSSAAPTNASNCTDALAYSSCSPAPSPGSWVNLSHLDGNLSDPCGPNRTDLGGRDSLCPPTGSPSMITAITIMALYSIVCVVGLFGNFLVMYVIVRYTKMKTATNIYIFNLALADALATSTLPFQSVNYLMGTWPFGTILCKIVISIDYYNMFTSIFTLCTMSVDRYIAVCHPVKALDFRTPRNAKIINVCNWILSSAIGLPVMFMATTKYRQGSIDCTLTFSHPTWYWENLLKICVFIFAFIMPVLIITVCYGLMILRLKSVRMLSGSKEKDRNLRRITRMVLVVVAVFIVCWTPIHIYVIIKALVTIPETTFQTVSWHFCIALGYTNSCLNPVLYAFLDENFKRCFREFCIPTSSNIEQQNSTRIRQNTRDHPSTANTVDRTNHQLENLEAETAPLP

[6] = human group III sPLA2 inhibitors, dose response, biochemical, QFRET, IC50 (AID 743457);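 further: green fluorescence rise as the enzyme cleaves BODIPY PC-A2 in liposomes; potency for inhibition of the enzyme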
[7] = control 3'UTR Renilla luciferase suppression, dose response, counter-screen for Shn3 inhibitor project, cell-based, Clone20-Shn3RL, cherry-picked (AID 624133); assay type: functional
[8] = Shn3 3'UTR reporter inhibitors, dose response, cell-based, Clone20 osteoblasts, firefly luciferase, cherry-picked (AID 624132); assay type: functional;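 further: firefly luciferase luminescence from reporter carrying the Shn3 3'UTR in osteoblasts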
[9] = HepG2 cell cytotoxicity, dose response, cytotoxicity control for Shn3 inhibitor project, CellTiter-Glo, cherry-picked (AID 624134); assay type: functional, cell-based
Paired box protein Pax-8 = Paired box protein Pax-8 (Homo sapiens, UniProt Q06710); assay: inhibitors of PAX8-driven TPO luciferase reporter, dose response, RMG-I cells, cherry-pick (AID 687027); assay type: functional, cell-based;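 further: luciferase reporter driven by Pax8 target thyroperoxidase promoter measured by SteadyGlo luminescence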
Chain of Paired box protein Pax-8 (Q06710 whole entry): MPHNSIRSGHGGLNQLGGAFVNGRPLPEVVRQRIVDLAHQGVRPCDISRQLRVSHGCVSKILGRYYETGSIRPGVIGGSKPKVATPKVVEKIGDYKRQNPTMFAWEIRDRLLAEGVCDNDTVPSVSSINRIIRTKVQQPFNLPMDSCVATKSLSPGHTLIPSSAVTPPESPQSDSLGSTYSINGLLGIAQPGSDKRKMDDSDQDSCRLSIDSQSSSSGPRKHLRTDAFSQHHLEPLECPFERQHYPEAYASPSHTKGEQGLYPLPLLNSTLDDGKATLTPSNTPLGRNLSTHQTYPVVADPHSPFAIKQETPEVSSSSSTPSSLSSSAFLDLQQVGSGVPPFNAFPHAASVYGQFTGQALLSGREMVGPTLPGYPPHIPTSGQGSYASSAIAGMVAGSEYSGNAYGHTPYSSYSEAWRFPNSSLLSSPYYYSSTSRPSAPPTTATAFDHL

[10] = cytotoxicity in OVCAR8 ovarian cancer cells, dose response, PAX8 project, cell-based, plate reader, dry powder samples (AID 743197); assay type: functional; settings: OVCAR-8
[11] = ZM109 Env clade C HIV-1 fusion inhibitors, dose response, HeLa effector, CEM target cells, luciferase, cherry-pick (AID 652058); assay type: functional, cell-based
[12] = inhibitors of clade B AD8 Env fusion, dose response, cell-based, cherry-pick (AID 652062); assay type: functional;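 further: luciferase signal from cell-cell fusion driven by HIV-1 clade B AD8 Env; potency is for inhibitors of fusion seen as a drop in luminescence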
[13] = HepG2 cell cytotoxicity, dose response, cytotoxicity control, plate reader, cherry-pick, antagonist series (AID 743416); assay type: functional, cell-based
[14] = HEK293 cell cytotoxicity, dose response, cytotoxicity control, plate reader, cherry-picked samples (AID 743446); assay type: functional, cell-based
[15] = A549 cell cytotoxicity, dose response, cytotoxicity control, plate reader, cherry-pick, antagonist series (AID 743412); assay type: functional, cell-based
[16] = molecular target: T3, Microphthalmia-associated transcription factor (Homo sapiens, UniProt O75030); assay: TRPM1 promoter luciferase signal decrease, dose response, MITF inhibitor project, cell-based, SK-MEL-5, cherry-picked, set 3 (AID 493073); assay type: functional
T3 sequence (O75030 whole entry): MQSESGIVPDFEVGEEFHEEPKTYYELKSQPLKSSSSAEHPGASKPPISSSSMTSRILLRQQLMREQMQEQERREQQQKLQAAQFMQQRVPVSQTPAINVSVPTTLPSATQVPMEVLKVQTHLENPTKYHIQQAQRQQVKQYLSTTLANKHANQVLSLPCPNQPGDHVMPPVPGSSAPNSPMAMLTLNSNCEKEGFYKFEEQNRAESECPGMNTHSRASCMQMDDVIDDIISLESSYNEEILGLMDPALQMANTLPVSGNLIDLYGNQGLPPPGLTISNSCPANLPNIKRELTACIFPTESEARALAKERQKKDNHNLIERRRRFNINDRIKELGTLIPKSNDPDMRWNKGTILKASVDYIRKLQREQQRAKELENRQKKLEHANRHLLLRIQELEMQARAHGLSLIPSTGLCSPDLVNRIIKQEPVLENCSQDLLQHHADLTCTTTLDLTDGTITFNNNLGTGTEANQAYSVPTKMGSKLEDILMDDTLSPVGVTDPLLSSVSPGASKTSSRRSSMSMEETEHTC

[17] = MC4R antagonists, dose response, counter-screen for LGR2 antagonist project, cell-based, plate reader, cherry pick (AID 743444); assay type: functional;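 further: transfected HEK 293 cells stimulated with alpha-MSH peptide; potency of inhibitors of the alpha-MSH evoked signal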
[18] = LGR2 antagonists, dose response, cell-based, HEK293, CRE-luciferase reporter, cherry pick, set 2 (AID 743343); assay type: functional;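 further: transfected cells were stimulated with diluted bursicon conditioned medium after compound addition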

Cc1cc2c(cc1C)CSC(c1c(O)ccc3ccccc13)SC2
EC50 (Streptococcus): 5.67 µM (active) | EC50 (Streptokinase A): 3.41 µM (active) | EC50 [1]: 1.98 µM (active) | AC50 [2]: 4.26 µM (active) | AC50 [3]: 2.24 µM (active) | CC50 [4]: 23 µM (active)

Cc1cc(C(=O)Nc2ccc(N3CCOCC3)cc2)c2ccccc2n1
AC50 (Cytochrome P450 3A4): 15.8 µM (inconclusive) | AC50 (Cytochrome P450 2C9): inconclusive | IC50 (Coagulation factor XII): > 50 µM (inactive)

Oc1cc2c(cc1CN1CCN(c3ncccn3)CC1)OCO2
EC50 [5]: 0.106 µM (active) | EC50 (Mu-type opioid receptor): 92.5 µM (inactive)

CCCCN=C(S)NNC(=O)c1ccc(Br)o1
IC50 [6]: > 122 µM (inactive)

O=C(OCCC12CC3CC(CC(C3)C1)C2)c1ccc(NCc2cc(O)ccc2O)cc1
AC50 [7]: 5.97 µM (active) | AC50 [8]: 1.82 µM (active) | AC50 [9]: 21.7 µM (active)

C[C@@H]1CCCCO[C@H](CN(C)Cc2ccc(C(F)(F)F)cc2)[C@H](C)CN([C@H](C)CO)C(=O)c2cc(NS(=O)(=O)c3ccccc3)ccc2O1
AC50 (Paired box protein Pax-8): 6.88 µM (active) | AC50 [10]: > 70 µM (inactive)

O=C(CN1CCN(Cc2ccc(Cl)cc2)C1=O)NCCCN1CCN(c2ccc(F)cc2)CC1
AC50 [11]: 36 µM (active) | AC50 [12]: 27.3 µM (active)

CC(=O)N1CCC(N2CCN(c3ccccc3F)CC2)CC1
IC50 (Coagulation factor XII): > 50 µM (inactive) | EC50 [5]: 1.16 µM (active) | EC50 (Mu-type opioid receptor): 92.4 µM (inactive)

Cn1nnnc1Sc1ncnc2scc(-c3ccsc3)c12
AC50 [13]: 10.9 µM (active) | AC50 [14]: 9.67 µM (active) | AC50 [15]: 9.63 µM (active) | AC50 (Paired box protein Pax-8): 2.56 µM (active) | AC50 [16]: 7.95 µM (active) | AC50 [17]: 8.27 µM (active) | AC50 [18]: 6.32 µM (active)
